Results taken from the NIST ThermoML archive (doi:10.1016/j.jct.2015.08.031).

Conditions: 101.33 kPa, Crystal, relaxation calorimeter

O[C@H]1[C@H](O)[C@H](O)OC[C@H]1O [β-D-arabinopyranose]
Conditions	molar entropy [J/K/mol]
0.5 K	0.0007089
1 K	0.001551
1.5 K	0.002666
2 K	0.004203
2.5 K	0.006327
3 K	0.009226
3.5 K	0.01311
4 K	0.01824
4.5 K	0.02488
5 K	0.03336
5.5 K	0.04406
6 K	0.0574
6.5 K	0.07383
7 K	0.09385
7.5 K	0.118
8 K	0.1468
8.5 K	0.1809
9 K	0.2206
9.5 K	0.2662
10 K	0.3182
11 K	0.4423
12 K	0.5944
13 K	0.7758
14 K	0.9866
15 K	1.227
16 K	1.496
17 K	1.793
18 K	2.116
19 K	2.466
20 K	2.839
25 K	5.013
30 K	7.582
35 K	10.43
40 K	13.47
45 K	16.66
50 K	19.95
55 K	23.28
60 K	26.64
65 K	30
70 K	33.38
75 K	36.77
80 K	40.16
85 K	43.54
90 K	46.93
95 K	50.31
100 K	53.68
110 K	60.41
120 K	67.11
130 K	73.78
140 K	80.41
150 K	87.01
160 K	93.58
170 K	100.12
180 K	106.62
190 K	113.1
200 K	119.55
210 K	125.98
220 K	132.38
230 K	138.76
240 K	145.12
250 K	151.45
260 K	157.77
270 K	164.07
273.15 K	166.06
280 K	170.36
290 K	176.63
298.15 K	181.72
300 K	182.88
